Drawing on US10987349B2, “Antitumor agent and bromodomain inhibitor” (FUJIFILM Corporation, priority 2016, dated 2021), this text covers inhibition for eight compounds.

The target of one assay is T1, BRD2 BD1 (Homo sapiens, UniProt P25440).
T1 construct: BRD2 BD1, BRD3 BD1 and BRD4 BD1 (Cisbio); purchased Cisbio
Description: Binding assay, BRD2 BD1 to acetylated histone H4 Peptide-Biotin (EPIgeneous Binding Domain Kit A). Particulars: test compound at 300 nmol/L; read-out: Binding inhibition percentage BRD2 BD1. Here is the method:
(§1) BRD2 BD1, BRD3 BD1 and BRD4 BD1 (Cisbio), [Lys(Ac)5/8/12/16]-Histone H4(1-25)-GSGSK (Biotin) (hereinafter referred to as “Peptide-Biotin,” AnaSpec), and EPIgeneous (registered trademark) Binding Domain Kit A (Cisbio) were used to carry out an assay. That is to say, per well, 4 μL of BRD2 BD1, BRD3 BD1 or BRD4 BD1, which was adjusted to 20 nmol/L with Diluent buffer; 4 μL of 25 nmol/L Peptide-Biotin; 2 μL of Dilution buffer (Cisbio) containing dimethyl sulfoxide (DMSO) or a test compound that was serially diluted with DMSO; 5 μL of 2.5 nmol/L Streptavidin-d2; and 5 μL of Anti-Gst-Eu+^3+ Cryptate Conjugate 50-fold diluted with Detection Buffer were added to a 384-well plate (Corning).
(§2) The obtained mixture was left at rest at room temperature for 20 hours, and thereafter, the fluoresence intensity at 665 nm and 620 nm was measured using Envision plate reader (Perkin Elmer), so that the inhibition percentage (%) of the test compound against the binding of a bromodomain in a bromodomain-containing protein to Peptide-Biotin was calculated. Binding inhibition percentage (%)=[1−{(fluorescence intensity at 665 nm of test compound−added well)/(fluorescence intensity at 620 nm of test compound−added well)}/{(fluorescence intensity at 665 nm of DMSO−added well)/(fluorescence intensity at 665 nm of DMSO−added well)}]×100
(§3) Moreover, using Graphpad prism 5 (GraphPad software), 50% inhibitory concentration [IC50 (nmol/L)] was calculated according to a non-linear regression analysis (log (inhibitor) vs. response—Variable slope (four parameters)).
(§4) Regarding other test compounds, each compound was diluted with DMSO to a final concentration of 300 nmol/L by the same method as that described above, and the binding inhibition percentage (%) of each test compound at 300 nmol/L against the binding of bromodomain in a bromodomain-containing protein to acetylated histone was calculated.

The target of another assay is T2, BRD2 BD2 (Homo sapiens, UniProt P25440).
T2 construct: BRD2 BD2, BRD3 BD2 and BRD4 BD2 (Cisbio); purchased Cisbio
The experiment in a line: Binding assay, BRD2 BD2 to acetylated histone H4 Peptide-Biotin (EPIgeneous Binding Domain Kit B). Particulars: test compound at 300 nmol/L; read-out: Binding inhibition percentage BRD2 BD2. Here is the method:
(§5) Moreover, BRD2 BD2, BRD3 BD2 and BRD4 BD2 (Cisbio), Peptide-Biotin (AnaSpec), and EPIgeneous (registered trademark) Binding Domain Kit B (Cisbio) were used to carry out an assay. That is, per well, 4 μL of BRD2 BD2, BRD3 BD2 or BRD4 BD2, which was adjusted to 20 nmol/L with Diluent buffer; 4 μL of 250 nmol/L Peptide-Biotin; 2 μL of Dilution buffer (Cisbio) containing DMSO or a test compound that was serially diluted with DMSO; 5 μL of 25 nmol/L Streptavidin-XL665; 5 μL of Anti-Gst-Eu+^3+ Cryptate Conjugate 50-fold diluted with Detection Buffer were added to a 384-well plate (Corning).
as §2, §3, §4

A further assay deals with T3, BRD3 BD1 (Homo sapiens, UniProt Q15059).
T3 construct: BRD2 BD1, BRD3 BD1 and BRD4 BD1 (Cisbio); purchased Cisbio
The experiment in a line: Binding assay, BRD3 BD1 to acetylated histone H4 Peptide-Biotin (EPIgeneous Binding Domain Kit A). Conditions: test compound at 300 nmol/L; read-out: Binding inhibition percentage BRD3 BD1. Here is the method: as §1, §2, §3, §4

In another assay the target is T4, BRD3 BD2 (Homo sapiens, UniProt Q15059).
T4 construct: BRD2 BD2, BRD3 BD2 and BRD4 BD2 (Cisbio); purchased Cisbio
Description: Binding assay, BRD3 BD2 to acetylated histone H4 Peptide-Biotin (EPIgeneous Binding Domain Kit B). Particulars: test compound at 300 nmol/L; read-out: Binding inhibition percentage BRD3 BD2. Here is the method: as §5, §2, §3, §4

Another assay deals with T5, BRD4 BD1 (Homo sapiens, UniProt O60885).
T5 construct: BRD2 BD1, BRD3 BD1 and BRD4 BD1 (Cisbio); purchased Cisbio
The experiment in a line: Binding assay, BRD4 BD1 to acetylated histone H4 Peptide-Biotin (EPIgeneous Binding Domain Kit A). Conditions: test compound at 300 nmol/L; read-out: Binding inhibition percentage BRD4 BD1. Here is the method:
as §1, §2, §3, §4

A further assay has as its target T6, BRD4 BD2 (Homo sapiens, UniProt O60885).
T6 construct: BRD2 BD2, BRD3 BD2 and BRD4 BD2 (Cisbio); purchased Cisbio
Description: Binding assay, BRD4 BD2 to acetylated histone H4 Peptide-Biotin (EPIgeneous Binding Domain Kit B). Conditions: test compound at 300 nmol/L; read-out: Binding inhibition percentage BRD4 BD2. As to the method:
as §5, §2, §3, §4

T1 sequence (P25440 74-180 limits assumed): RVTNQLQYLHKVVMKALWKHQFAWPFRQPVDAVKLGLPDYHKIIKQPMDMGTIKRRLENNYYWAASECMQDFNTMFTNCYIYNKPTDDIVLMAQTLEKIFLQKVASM
T3 sequence (Q15059 34-140 limits assumed): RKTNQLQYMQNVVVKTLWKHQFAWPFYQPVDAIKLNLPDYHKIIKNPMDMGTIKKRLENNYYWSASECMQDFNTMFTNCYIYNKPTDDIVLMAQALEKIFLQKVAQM
T2 sequence (P25440 344-453 limits assumed): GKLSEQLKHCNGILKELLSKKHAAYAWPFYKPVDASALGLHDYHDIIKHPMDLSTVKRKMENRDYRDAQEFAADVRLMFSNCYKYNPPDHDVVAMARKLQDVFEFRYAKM
T4 sequence (Q15059 306-415 limits assumed): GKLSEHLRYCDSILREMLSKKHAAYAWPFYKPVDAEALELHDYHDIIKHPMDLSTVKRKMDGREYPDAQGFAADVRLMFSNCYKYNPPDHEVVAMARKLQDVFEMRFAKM

Consider `CCn1c(=O)cc(C2CC2)c2cc(N(C)C(=O)c3ccccc3)ccc21` [Example 2, N-(4-cyclopropyl-1-ethyl-2-oxo-1,2-dihydroquinolin-6-yl)-N-methylbenzamide], for which the inhibition at 0.3 µM turned out to be 52% at BRD2 BD1; 89% at BRD2 BD2; 85% at BRD3 BD1; 91% on BRD3 BD2; 85% on BRD4 BD1; 86% on BRD4 BD2.

Take `CCn1c(=O)cc(N2CCOCC2)c2cc(-n3c(-c4ccccc4)c[nH]c3=O)ccc21` [Example 3, 1-ethyl-4-(morpholin-4-yl)-6-(2-oxo-5-phenyl-2,3-dihydro-1H-imidazol-1-yl)quinolin-2(1H)-one]: the inhibition at 0.3 µM at BRD2 BD1 is 91%; on BRD2 BD2, 89%; at BRD3 BD1 it was 94%; at BRD3 BD2 it was 91%; on BRD4 BD1, 94%; at BRD4 BD2, 89%.

`CCN1CCC(c2cc(=O)n(CC)c3ccc(C(=O)N(C)c4ccccc4)cc23)CC1` [Example 8, 1-ethyl-4-(1-ethylpiperidin-4-yl)-N-methyl-2-oxo-N-phenyl-1,2-dihydroquinoline-6-carboxamide]: the inhibition at 0.3 µM came to 93% on BRD2 BD1; 79% on BRD2 BD2; 94% on BRD3 BD1; 67% at BRD3 BD2; 94% at BRD4 BD1; 74% at BRD4 BD2.

For the compound `CCn1c(=O)cc(C(C)C)c2cc(N(C)C(=O)c3ccc(Cl)cc3)ccc21` [Example 16, 4-Chloro-N-(1-ethyl-2-oxo-4-(propan-2-yl)-1,2-dihydroquinolin-6-yl)-N-methylbenzamide], the inhibition at 0.3 µM at BRD2 BD1 is 44%; on BRD2 BD2, 87%; at BRD3 BD1, 79%; at BRD3 BD2 it was 92%; on BRD4 BD1 it was 70%; on BRD4 BD2, 88%.

Turning to `CCn1c(=O)cc(N2CCOCC2)c2cc(-c3cnn(C)c3-c3ccccc3)ccc21` [Example 18, 1-Ethyl-6-(1-methyl-5-phenyl-1H-pyrazol-4-yl)-4-(morpholin-4-yl)quinolin-2(1H)-one], the inhibition at 0.3 µM at BRD2 BD1 is 89%; on BRD2 BD2, 86%; on BRD3 BD1, 93%; on BRD3 BD2 it was 88%; at BRD4 BD1 it was 94%; on BRD4 BD2, 85%.

Take `CCn1c(=O)cc(C2CCN(CCO)CC2)c2cc(C(=O)N(C)c3ccc4c(c3)CCCC4)ccc21` [Example 179, 1-ethyl-4-(1-(2-hydroxyethyl)piperidin-4-yl)-N-methyl-2-oxo-N-(5,6,7,8-tetrahydronaphthalen-2-yl)-1,2-dihydroquinoline-6-carboxamide]: the inhibition at 0.3 µM turned out to be 93% at BRD2 BD1; 88% at BRD2 BD2; 94% at BRD3 BD1; 92% on BRD3 BD2; 95% at BRD4 BD1; 88% at BRD4 BD2.

Consider `CCn1c(=O)cc(C2CCN(C(=O)C(C)C)CC2)c2cc(C(=O)N(C)c3ccc(C)cc3)ccc21` [Example 183, 1-ethyl-N-methyl-N-(4-methylphenyl)-4-(1-(2-methylpropanoyl)piperidin-4-yl)-2-oxo-1,2-dihydroquinoline-6-carboxamide], for which the inhibition at 0.3 µM at BRD2 BD1 was found to be 81%; at BRD2 BD2, 71%; on BRD3 BD1, 92%; on BRD3 BD2 it was 80%; on BRD4 BD1, 94%; on BRD4 BD2 it was 83%.

Turning to `CCn1c(=O)cc(C2CCN(CCO)CC2)c2cc(C(=O)N(C)c3ccc4c(c3)CCCCC4)ccc21` [Example 191], the inhibition at 0.3 µM was 94% at BRD2 BD1; 87% at BRD2 BD2; 95% on BRD3 BD1; 92% at BRD3 BD2; 94% at BRD4 BD1; 88% on BRD4 BD2.
